Measurements as given in patent US4426390A, “Novel β-lactam compounds, process for producing thereof, and use thereof as medicines” (Sanraku-Ocean Co., Ltd., priority 1980, dated 1984).
Values after ≈ are worked out from the molar mass of the structure shown.

What was measured:
Proteus vulgaris GN76 [1] = assay: Synergistic effect on MIC, microdilution transfer plate technique; type: cell-based
[2] = system: Citrobacter Freundii GN346; assay: as above; type: cell-based
Enterobacter cloacac 45 = assay: Disc assay of synergy, inhibition zones; type: cell-based; conditions: disc OA-6129B2, PS-5 100 μg/ml, CER, PCG 1000 μg/ml
Protocol: (§1) (B) The presence or absence of synergy is visually checked by the size difference in inhibitory zones observed when the test drug is disc-assayedon an agar plate of a detector microbe and on an agar plate of the detector containing cephaloridine or benzylpenicillin, respectively.
(§2) One loopful of the stock culture of a test organism is inoculated in heat infusion broth (5 ml/tube), and grown at 37° C. for 18 hours. The culture broth is diluted to a final concentration of about 10^5 cells/ml in nutrient agar with or without benzyl penicillin or cephaloridine, and plated in a Petri dish with a diameter of 9 cm, as shown below.
(§3) Using the above-prepared agar plates, antibiotic PS-5 (100 μg/ml), antibiotic OA-6129B2 (5,6-trans OA-6129B) (100 μg/ml), benzylpenicillin (1000 μg/ml) and cephaloridine (1000 μg/ml) are subjected to disc assay.

[3] = system: Citrobacter Freundii GN346; assay: Disc assay of synergy, inhibition zones; type: cell-based; conditions: disc OA-6129B2, PS-5 100 μg/ml, CER, PCG 1000 μg/ml
Protocol: as §1, §2, §3

Proteus vulgaris GN76 [4] = assay: Disc assay of synergy, inhibition zones; type: cell-based; conditions: disc OA-6129B2, PS-5 100 μg/ml, CER, PCG 1000 μg/ml
Protocol: as §1, §2, §3

Serratia marccscens T55 = assay: Disc assay of synergy, inhibition zones; type: cell-based; conditions: disc OA-6129B2, PS-5 100 μg/ml, CER, PCG 1000 μg/ml
Protocol: as §1, §2, §3

E. coli RGN823 = assay: MIC by agar dilution method; type: cell-based; conditions: Escherichia coli, 37° C., 18 hours
Protocol: (§4) The MIC is measured by an agar dilution method based on the standard method of the Japanese Society of Chemotherapy (Japanese Society of Chemotherapy: The Revised Method of Determination of MIC Values, Chemotherapy 22, 1126-1128, […]). Specifically, the antibiotic is serially diluted with a 1/50 M phosphate buffer at a pH of 7.3 to prepare a twofold dilution series. One milliliter of each dilution and 9 ml of an agar medium (Heart Infusion Agar; a product of Difco Laboratories) are mixed and allowed to solidify in a Petri dish having a diameter of 9 cm. One loopful of the stock culture of the test microbe is inoculated in trypto-soy buillon (a product of Eiken Kagaku Co., Ltd.) and incubated at 37° C. for 18 hours. The resulting culture broth is diluted to a concentration of about 10^6 cells/ml with physiological saline and inoculated on the agar plate by means of a microplanter.

S. aureus Smith = assay: MIC by agar dilution method; type: cell-based; conditions: Staphylococcus aureus, 37° C., 18 hours
Protocol: as §4

Ser. marcesceus T55 = assay: MIC by agar dilution method; type: cell-based; conditions: 37° C., 18 hours
Protocol: as §4

[5] = system: Klebsiella pneumoniae K13; assay: MIC by agar dilution method; type: cell-based; conditions: 37° C., 18 hours
Protocol: as §4

S. epidermidis = assay: MIC by agar dilution method; type: cell-based; conditions: Staphylococcus epidermidis, 37° C., 18 hours
Protocol: as §4

[6] = system: Staphylococcus aureus 209P; assay: MIC by agar dilution method; type: cell-based; conditions: 37° C., 18 hours
Protocol: as §4

[7] = system: Pseudomonas aenginosa IFO3445; assay: MIC by agar dilution method; type: cell-based; conditions: 37° C., 18 hours
Protocol: as §4

Comamonas terrigena B996 = assay: MIC by agar dilution method; type: cell-based; conditions: 37° C., 18 hours
Protocol: as §4

[8] = system: Citrobacter Freundii GN346; assay: MIC by agar dilution method; type: cell-based; conditions: 37° C., 18 hours
Protocol: as §4

[9] = system: Enterobacter aerogenes E19; assay: MIC by agar dilution method; type: cell-based; conditions: Klebsiella aerogenes, 37° C., 18 hours
Protocol: as §4

[10] = system: Bacillus subtillis ATCC 6633; assay: MIC by agar dilution method; type: cell-based; conditions: ATCC6633; Bacillus subtillis ATCC 6633; agar dilution, 37° C., 18 hours; read-out: MIC
Protocol: as §4

Ps. aeruginosa NCTC10490 = assay: MIC by agar dilution method; type: cell-based; conditions: Pseudomonas aeruginosa, 37° C., 18 hours
Protocol: as §4

P. rettgeri P7 = assay: MIC by agar dilution method; type: cell-based; conditions: Providencia rettgeri; P. rettgeri P7; agar dilution, 37° C., 18 hours; read-out: MIC
Protocol: as §4

Providencia sp. P8 = assay: MIC by agar dilution method; type: cell-based; conditions: Providencia sp. P8; agar dilution, 37° C., 18 hours; read-out: MIC
Protocol: as §4

Serratia marcesceus S18 = assay: MIC by agar dilution method; type: cell-based; conditions: 37° C., 18 hours
Protocol: as §4

Ent. cloacae 45 = assay: MIC by agar dilution method; type: cell-based; conditions: Enterobacter cloacae, 37° C., 18 hours
Protocol: as §4

Sarcina lutea S19 = assay: MIC by agar dilution method; type: cell-based; conditions: Micrococcus luteus, 37° C., 18 hours
Protocol: as §4

Ent. sp. E8 = assay: MIC by agar dilution method; type: cell-based; conditions: Ent. sp. E8; agar dilution, 37° C., 18 hours; read-out: MIC
Protocol: as §4

Escherichia coli K-12 = assay: MIC by agar dilution method; type: cell-based; conditions: K12; Escherichia coli K-12; agar dilution, 37° C., 18 hours; read-out: MIC
Protocol: as §4

P. vulgaris GN76 = assay: MIC by agar dilution method; type: cell-based; conditions: Proteus vulgaris, 37° C., 18 hours
Protocol: as §4

Alcaligenes Faecolis A1 = assay: MIC by agar dilution method; type: cell-based; conditions: Alcaligenes Faecolis A1; agar dilution, 37° C., 18 hours; read-out: MIC
Protocol: as §4

S. aureus Russell = assay: MIC by agar dilution method; type: cell-based; conditions: Staphylococcus aureus; S. aureus Russell; agar dilution, 37° C., 18 hours; read-out: MIC
Protocol: as §4

Proteus mirabilis P6 = assay: MIC by agar dilution method; type: cell-based; conditions: Proteus mirabilis P6; agar dilution, 37° C., 18 hours; read-out: MIC
Protocol: as §4

[11] = Stability (half life) in phosphate buffers of various pH; type: physicochemical; conditions: 28° C.
Protocol: By adding 2% sodium hydroxide or 10% hydrochloric acid, the pH of 0.05 M phosphate buffer is adjusted to 4, 5, 6, 7, 8 and 9, respectively, and distributed into test tubes in an amount of 3 ml. Concentrated solution of antibiotic OA-6129A (0.05 ml) is added to each test tube and allowed to stand in a thermostatic chamber of 28° C. The time course curve of the concentration decrease of antibiotic OA-6129A is drawn by spectrophotometric measurement at 300 nm, from which the half life of the antibiotic at the indicated pH is calculated. As a control, antibiotic PS-5, a carbapenem compound described in the above-cited reference is simultaneously tested.

Which “MIC of ABPC in combination” value (Proteus vulgaris GN76 [1]; with OA-6129A 1.56 μg/ml) does the source give for `CC1(C)S[C@@H]2[C@H](NC(=O)[C@H](N)c3ccccc3)C(=O)N2[C@H]1C(=O)O` [ABPC, Aminobenzylpenicillin] here?
Its value is 3.3 µg/mL.

And the “MIC of ABPC in combination” value (Proteus vulgaris GN76 [1]; with OA-6129A 6.25 μg/ml)?
Its value is 39 µg/mL.

What about the “MIC of ABPC in combination” value (Proteus vulgaris GN76 [1]; with OA-6129A 25 μg/ml) of the same molecule?
Its value is 10 µg/mL.

What about the “MIC of ABPC in combination” value (Proteus vulgaris GN76 [1]; with OA-6129A 50 μg/ml) of the same molecule?
Its value is under 5 µg/mL.

What about the “MIC of ABPC in combination” value (Proteus vulgaris GN76 [1]; with OA-6129A […]) of the same molecule?
Its value is 156 µg/mL.

What about the “MIC of ABPC in combination” value ([2]; with OA-6129A 6.25 μg/ml) of the same molecule?
Its value is 313 µg/mL.

And the “MIC of ABPC in combination” value ([2]; with OA-6129A 25 μg/ml)?
The value was under 5 µg/mL.

And the “MIC of ABPC in combination” value ([2]; with OA-6129A 50 μg/ml)?
Its value is under 5 µg/mL.

And the “MIC of ABPC in combination” value ([2]; with OA-6129A […])?
The value was 625 µg/mL.

Which zone of inhibition at 100 µg/mL (Enterobacter cloacac 45; Enterobacter, 45, plate: None, read-out: diameter of inhibition zones) does the source give for `CCC1C(=O)N2C(C(=O)O)=C(SCCNC(C)=O)CC12` (centres unmarked) [PS-5, reference compound] here?
Its zone of inhibition at 100 µg/mL is 20 mm.

And the “diameter of inhibition zones” value (Enterobacter cloacac 45; plate: + CER)?
The value was 22.5 mm.

And the “diameter of inhibition zones” value (Enterobacter cloacac 45; plate: + PCG)?
The value was 21.0 mm.

And the zone of inhibition at 100 µg/mL ([3]; Citrobacter freundii, GN346, plate: None, read-out: diameter of inhibition zones)?
The zone of inhibition at 100 µg/mL was 22.5 mm.

What about the “diameter of inhibition zones” value ([3]; plate: + CER) of the same molecule?
The value was 24.0 mm.

What about the “diameter of inhibition zones” value ([3]; plate: + PCG) of the same molecule?
The value was 23.5 mm.

And the zone of inhibition at 100 µg/mL (Proteus vulgaris GN76 [4]; Proteus vulgaris, GN76, plate: None, read-out: diameter of inhibition zones)?
Its zone of inhibition at 100 µg/mL is 17.5 mm.

What about the “diameter of inhibition zones” value (Proteus vulgaris GN76 [4]; plate: + CER) of the same molecule?
Its value is 23.5 mm.

What about the “diameter of inhibition zones” value (Proteus vulgaris GN76 [4]; plate: + PCG) of the same molecule?
The value was 25.0 mm.

What about the zone of inhibition at 100 µg/mL (Serratia marccscens T55; Serratia, T55, plate: None, read-out: diameter of inhibition zones) of the same molecule?
The zone of inhibition at 100 µg/mL was 23.5 mm.

And the “diameter of inhibition zones” value (Serratia marccscens T55; plate: + CER)?
Its value is 34.0 mm.

What about the “diameter of inhibition zones” value (Serratia marccscens T55; plate: + PCG, reduced to 5 μg/ml (final concentration)) of the same molecule?
Its value is 24.0 mm.

And the MIC (E. coli RGN823)?
Its MIC is 3.13 µg/mL (≈ 10.5 µM).

What about the MIC (S. aureus Smith) of the same molecule?
The MIC was 0.2 µg/mL (≈ 0.67 µM).

And the MIC (Ser. marcesceus T55)?
The MIC was 6.25 µg/mL (≈ 20.9 µM).

And the MIC [5]?
Its MIC is 3.13 µg/mL (≈ 10.5 µM).

And the MIC (S. epidermidis)?
The MIC was 0.2 µg/mL (≈ 0.67 µM).

What about the MIC [6] of the same molecule?
The MIC was 0.024 µg/mL (≈ 0.0804 µM).

What about the MIC [7] of the same molecule?
Its MIC is 12.5 µg/mL (≈ 41.9 µM).

And the MIC (Comamonas terrigena B996)?
Its MIC is 0.012 µg/mL (≈ 0.0402 µM).

And the MIC [8]?
The MIC was 3.13 µg/mL (≈ 10.5 µM).

What about the MIC [9] of the same molecule?
The MIC was 3.13 µg/mL (≈ 10.5 µM).

What about the MIC [10] of the same molecule?
Its MIC is 0.1 µg/mL (≈ 0.335 µM).

And the MIC (Ps. aeruginosa NCTC10490)?
The MIC was 12.5 µg/mL (≈ 41.9 µM).

And the MIC (P. rettgeri P7)?
Its MIC is 3.13 µg/mL (≈ 10.5 µM).

What about the MIC (Providencia sp. P8) of the same molecule?
The MIC was 3.13 µg/mL (≈ 10.5 µM).

What about the MIC (Serratia marcesceus S18) of the same molecule?
Its MIC is 3.13 µg/mL (≈ 10.5 µM).

What about the MIC (Ent. cloacae 45) of the same molecule?
Its MIC is 3.13 µg/mL (≈ 10.5 µM).

And the MIC (Sarcina lutea S19)?
The MIC was 0.1 µg/mL (≈ 0.335 µM).

And the MIC (Ent. sp. E8)?
The MIC was 3.13 µg/mL (≈ 10.5 µM).

And the MIC (Escherichia coli K-12)?
The MIC was 1.56 µg/mL (≈ 5.23 µM).

And the MIC (P. vulgaris GN76)?
Its MIC is 6.25 µg/mL (≈ 20.9 µM).

What about the MIC (Alcaligenes Faecolis A1) of the same molecule?
The MIC was 0.78 µg/mL (≈ 2.61 µM).

And the MIC (S. aureus Russell)?
The MIC was 0.2 µg/mL (≈ 0.67 µM).

And the MIC (Proteus mirabilis P6)?
The MIC was 6.25 µg/mL (≈ 20.9 µM).

What about the half-life ([11]; pH 4, 0.05 M phosphate buffer) of the same molecule?
Its half-life is 0.2 h.

What about the half-life ([11]; pH 5, 0.05 M phosphate buffer) of the same molecule?
Its half-life is 3.43 h.

And the half-life ([11]; pH 6, 0.05 M phosphate buffer)?
Its half-life is 13.2 h.

And the half-life ([11]; pH 7, 0.05 M phosphate buffer)?
The half-life was 38.2 h.

And the half-life ([11]; pH 8, 0.05 M phosphate buffer)?
Its half-life is 78 h.

What about the half-life ([11]; pH 9, 0.05 M phosphate buffer) of the same molecule?
Its half-life is 36.2 h.
